Measured values: article PMC12396409, “Screening and hit evaluation of a microbial metabolite library against the pathogenic Plasmodium falciparum and Toxoplasma gondii parasites” (International Journal for Parasitology: Drugs and Drug …, 2025)
Counter-ions that a name gives are not always drawn. Like-named read-outs stand apart in the source and are kept apart here.

Legend:
[1] = test system: P. falciparum 3D7 parasites; assay: P. falciparum growth inhibition assay, 1-cycle (72 h treatment), SYBR DNA staining (library screen at 2 μg/mL and dose-response); assay type: cell-based, Plasmodium falciparum
[2] = test system: P. falciparum 3D7 parasites; assay: P. falciparum growth inhibition assay, 2-cycle (120 h treatment), delayed-death screen and dose-response; assay type: cell-based, Plasmodium falciparum
[3] = test system: T. gondii RH strain (RH-Tub-eYFP) tachyzoites; assay: microbe, parasite or virus in culture; assay type: cell-based, Toxoplasma gondii; details: 72 h; for percent parasite growth at 2 µg/mL: Toxoplasma gondii
[4] = library screen at 2 μg/mL, 72 h, % growth, replicate 1
[5] = library screen at 2 μg/mL, 72 h, % growth, replicate 2
[6] = library screen at 2 μg/mL, 120 h, % growth, replicate 1
[7] = library screen at 2 μg/mL, 120 h, % growth, replicate 2
[8] = library screen at 2 μg/mL, % growth, replicate 1
[9] = library screen at 2 μg/mL, % growth, replicate 2
[10] = P. falciparum, 72 h, parasite screen 2 μg/mL, % growth, replicate 1
[11] = P. falciparum, 72 h, parasite screen 2 μg/mL, % growth, replicate 2
[12] = P. falciparum, 120 h, parasite screen 2 μg/mL, % growth, replicate 1
[13] = P. falciparum, 120 h, parasite screen 2 μg/mL, % growth, replicate 2
[14] = T. gondii, parasite screen 2 μg/mL, % growth, replicate 1
[15] = T. gondii, parasite screen 2 μg/mL, % growth, replicate 2

Which Pf_72h_%Growth_Rep1 [1, 4] does the source give for Dihydrocyclosporin A here?
Its Pf_72h_%Growth_Rep1 is 1.22%.

And the Pf_72h_%Growth_Rep2 [1, 5]?
Its Pf_72h_%Growth_Rep2 is -3.30%.

And the Pf_120h_%Growth_Rep1 [2, 6]?
The Pf_120h_%Growth_Rep1 was 3.25%.

What about the Pf_120h_%Growth_Rep2 [2, 7] of the same compound?
The Pf_120h_%Growth_Rep2 was 2.98%.

And the Tg_72h_%Growth_Rep1 [3, 8]?
Its Tg_72h_%Growth_Rep1 is 8.15%.

And the Tg_72h_%Growth_Rep2 [3, 9]?
Its Tg_72h_%Growth_Rep2 is 8.03%.

`CC1CC=CC=CC=CC=CC(OC2OC(C)C(O)C(N)C2O)CC2OC(O)(CC(O)CC3OC3C=CC(=O)O1)CC(O)C2C(=O)O` (centres unmarked) [BIA-P1210] was tested. Which Pf_72h_%Growth_Rep1 ([1]; P. falciparum 3D7, 72 h, parasite screen at 2 μg/mL, % growth, replicate 1) did it give?
The Pf_72h_%Growth_Rep1 was 82.66%.

What about the Pf_72h_%Growth_Rep2 ([1]; P. falciparum 3D7, 72 h, parasite screen at 2 μg/mL, % growth, replicate 2) of the same compound?
The Pf_72h_%Growth_Rep2 was 61.24%.

And the Pf_120h_%Growth_Rep1 ([2]; P. falciparum 3D7, 120 h, parasite screen at 2 μg/mL, % growth, replicate 1)?
Its Pf_120h_%Growth_Rep1 is 62.24%.

And the Pf_120h_%Growth_Rep2 ([2]; P. falciparum 3D7, 120 h, parasite screen at 2 μg/mL, % growth, replicate 2)?
Its Pf_120h_%Growth_Rep2 is 79.36%.

And the Tg_72h_%Growth_Rep1 ([3]; T. gondii, parasite screen at 2 μg/mL, % growth, replicate 1)?
Its Tg_72h_%Growth_Rep1 is 91.98%.

And the Tg_72h_%Growth_Rep2 ([3]; T. gondii, parasite screen at 2 μg/mL, % growth, replicate 2)?
Its Tg_72h_%Growth_Rep2 is 100.38%.

`C/C=C(\NC(=O)c1csc(-c2csc(-c3ccc4c(n3)-c3csc(n3)[C@H]([C@@H](C)O)NC(=O)c3csc(n3)[C@H](C(C)(C)O)NC(=O)c3csc(n3)/C(=C/C)NC(=O)[C@H]([C@@H](C)O)NC(=O)c3csc-4n3)n2)n1)C(=O)NC[C@@H](C)O` [Thiocillin I] was tested. Which IC50 ([1]; 3D7, 72 h treatment, mean ± S.D., n ≥ 3, read-out: IC50 (μM), P. falciparum) did it give?
The IC50 was 0.08 ± 0.008 µM.

And the IC50 ([1]; 72 h treatment, read-out: IC50, P. falciparum)?
Its IC50 is under 0.2 µM.

What about the Pf_72h_%Growth_Rep1 ([1]; P. falciparum, 72 h, screen at 2 μg/mL, replicate 1) of the same compound?
The Pf_72h_%Growth_Rep1 was 5.41%.

And the Pf_72h_%Growth_Rep2 ([1]; P. falciparum, 72 h, screen at 2 μg/mL, replicate 2)?
The Pf_72h_%Growth_Rep2 was -2.25%.

And the Pf_120h_%Growth_Rep1 ([2]; P. falciparum, 120 h, screen at 2 μg/mL, replicate 1)?
Its Pf_120h_%Growth_Rep1 is 9.85%.

What about the Pf_120h_%Growth_Rep2 ([2]; P. falciparum, 120 h, screen at 2 μg/mL, replicate 2) of the same compound?
The Pf_120h_%Growth_Rep2 was 7.39%.

And the Tg_72h_%Growth_Rep1 ([3]; T. gondii, screen at 2 μg/mL, replicate 1)?
Its Tg_72h_%Growth_Rep1 is 86.81%.

And the Tg_72h_%Growth_Rep2 ([3]; T. gondii, screen at 2 μg/mL, replicate 2)?
Its Tg_72h_%Growth_Rep2 is 86.09%.

With `CN(C)[C@H]1C(O)=C(C(N)=O)C(=O)[C@@]2(O)C(O)=C3C(=O)c4c(O)cccc4[C@@](C)(O)[C@H]3C[C@@H]12` [Epitetracycline hydrochloride] as the compound, how does the activity at 2 µg/mL ([1]; Plasmodium falciparum, 3D7; P. falciparum, 2 μg/mL, 72 h; read-out: 1) Growth (%) at 72 h) read?
The activity at 2 µg/mL was 57.7%.

And the activity at 2 µg/mL ([1]; Plasmodium falciparum, 3D7, library screen at 2 μg/mL, 72 h, % growth, replicate 1, read-out: Pf_72h_%Growth_Rep1)?
The activity at 2 µg/mL was 65.2%.

What about the activity at 2 µg/mL ([1]; Plasmodium falciparum, 3D7, library screen at 2 μg/mL, 72 h, % growth, replicate 2, read-out: Pf_72h_%Growth_Rep2) of the same compound?
The activity at 2 µg/mL was 50.1%.

And the “3) Fold change (72 h/120 h)” value [2]?
The value was 3.9.

What about the activity at 2 µg/mL ([2]; Plasmodium falciparum, 3D7; P. falciparum, 2 μg/mL, 120 h; read-out: 2) Growth (%) at 120 h) of the same compound?
The activity at 2 µg/mL was 14.7%.

What about the activity at 2 µg/mL ([2]; Plasmodium falciparum, 3D7, library screen at 2 μg/mL, 120 h, % growth, replicate 1, read-out: Pf_120h_%Growth_Rep1) of the same compound?
Its activity at 2 µg/mL is 18%.

What about the activity at 2 µg/mL ([2]; Plasmodium falciparum, 3D7, library screen at 2 μg/mL, 120 h, % growth, replicate 2, read-out: Pf_120h_%Growth_Rep2) of the same compound?
The activity at 2 µg/mL was 11.5%.

What about the percent parasite growth at 2 µg/mL ([3]; read-out: Tg_72h_%Growth_Rep1) of the same compound?
The percent parasite growth at 2 µg/mL was 125%.

And the percent parasite growth at 2 µg/mL ([3]; read-out: Tg_72h_%Growth_Rep2)?
Its percent parasite growth at 2 µg/mL is 100%.

How did the Pf_72h_%Growth_Rep1 ([1]; P. falciparum 3D7, 72 h, library screen at 2 μg/mL, % growth, replicate 1) turn out when `CCCC(=O)OC1C(C)OC(OC2C(C)OC(OC3C(CC=O)CC(C)C(O)C=CC=CCC(C)OC(=O)CC(OC(C)=O)C3OC)C(O)C2N(C)C)CC1(C)O` (centres unmarked) [BIA-L1364] was run?
Its Pf_72h_%Growth_Rep1 is 50.48%.

And the Pf_72h_%Growth_Rep2 ([1]; P. falciparum 3D7, 72 h, library screen at 2 μg/mL, % growth, replicate 2)?
The Pf_72h_%Growth_Rep2 was 43.27%.

What about the Pf_120h_%Growth_Rep1 ([2]; P. falciparum 3D7, 120 h, library screen at 2 μg/mL, % growth, replicate 1) of the same compound?
The Pf_120h_%Growth_Rep1 was 4.30%.

And the Pf_120h_%Growth_Rep2 ([2]; P. falciparum 3D7, 120 h, library screen at 2 μg/mL, % growth, replicate 2)?
The Pf_120h_%Growth_Rep2 was -1.28%.

And the Tg_72h_%Growth_Rep1 ([3]; T. gondii RH, library screen at 2 μg/mL, % growth, replicate 1)?
The Tg_72h_%Growth_Rep1 was 19.43%.

And the Tg_72h_%Growth_Rep2 ([3]; T. gondii RH, library screen at 2 μg/mL, % growth, replicate 2)?
Its Tg_72h_%Growth_Rep2 is 27.43%.

How did the activity at 2 µg/mL ([1]; Plasmodium falciparum, 3D7, 72 h, P. falciparum, 72 h, screen at 2 μg/mL, replicate 1, read-out: Pf_72h_%Growth_Rep1) turn out when `COC(=O)[C@]1(Cc2ccc(O)c(CC=C(C)C)c2)OC(=O)C(O)=C1c1ccc(O)cc1` [Butyrolactone I] was run?
Its activity at 2 µg/mL is 72.4%.

And the activity at 2 µg/mL ([1]; Plasmodium falciparum, 3D7, 72 h, P. falciparum, 72 h, screen at 2 μg/mL, replicate 2, read-out: Pf_72h_%Growth_Rep2)?
The activity at 2 µg/mL was 88.5%.

What about the activity at 2 µg/mL ([2]; Plasmodium falciparum, 3D7, 120 h, P. falciparum, 120 h, screen at 2 μg/mL, replicate 1, read-out: Pf_120h_%Growth_Rep1) of the same compound?
The activity at 2 µg/mL was 147%.

What about the activity at 2 µg/mL ([2]; Plasmodium falciparum, 3D7, 120 h, P. falciparum, 120 h, screen at 2 μg/mL, replicate 2, read-out: Pf_120h_%Growth_Rep2) of the same compound?
The activity at 2 µg/mL was 92.6%.

What about the percent parasite growth at 2 µg/mL ([3]; T. gondii, screen at 2 μg/mL, replicate 1, read-out: Tg_72h_%Growth_Rep1) of the same compound?
The percent parasite growth at 2 µg/mL was 85.8%.

What about the percent parasite growth at 2 µg/mL ([3]; T. gondii, screen at 2 μg/mL, replicate 2, read-out: Tg_72h_%Growth_Rep2) of the same compound?
Its percent parasite growth at 2 µg/mL is 88.7%.

Which results are given for `CCC1C=CC2C=C(C)C(OC3CC(C)(O)C(NC(C)=O)C(C)O3)C(C)C=C(C)C3C=CC4C(OC5CC(O)C(OC6CC(OC7CCC(O)C(C)O7)C(OC7CC(O)C(O)C(C)O7)C(C)O6)C(C)O5)C(C)CC(C)C4C3(C)C(O)=C3C(=O)OC2(C1)C3=O` (centres unmarked) [Saccharocarcin A]?
Pf_72h_%Growth_Rep1 [1, 10]: 25.38%; Pf_72h_%Growth_Rep2 [1, 11]: 12.51%; Pf_120h_%Growth_Rep1 [2, 12]: 14.27%; Pf_120h_%Growth_Rep2 [2, 13]: 13.84%; Tg_72h_%Growth_Rep1 [3, 14]: -0.34%; Tg_72h_%Growth_Rep2 [3, 15]: 2.07%

With `CCCCC/C=C/C=C\C=C/[C@H](O)[C@H](C)[C@H](C/C=C/[C@@H]1OC(=O)C=C[C@@H]1O)OS(=O)(=O)[O-].[Na+]` [Sultriecin] as the compound, how does the Pf_72h_%Growth_Rep1 [1, 10] read?
The Pf_72h_%Growth_Rep1 was 90.74%.

What about the Pf_72h_%Growth_Rep2 [1, 11] of the same compound?
The Pf_72h_%Growth_Rep2 was 116.83%.

And the Pf_120h_%Growth_Rep1 [2, 12]?
Its Pf_120h_%Growth_Rep1 is 87.78%.

And the Pf_120h_%Growth_Rep2 [2, 13]?
The Pf_120h_%Growth_Rep2 was 130.19%.

What about the Tg_72h_%Growth_Rep1 [3, 14] of the same compound?
The Tg_72h_%Growth_Rep1 was 105.98%.

And the Tg_72h_%Growth_Rep2 [3, 15]?
The Tg_72h_%Growth_Rep2 was 90.75%.

What does the source list for `COc1cc(/C=C/C(=O)O)ccc1O` [Ferulic acid]?
Pf_72h_%Growth_Rep1 [1, 4]: 82.96%; Pf_72h_%Growth_Rep2 [1, 5]: 102.51%; Pf_120h_%Growth_Rep1 [2, 6]: 78.07%; Pf_120h_%Growth_Rep2 [2, 7]: 101.86%; Tg_72h_%Growth_Rep1 [3, 8]: 101.17%; Tg_72h_%Growth_Rep2 [3, 9]: 94.55%
